PubChem BioAssay AID2060889 (Molecular Pharmacology Branch, DTP, NCI, 2025)

Test system: LG0567-F671-PDC complex spheroids viability
Assay: Anticancer human tumor LG0567-F671-PDC patient-derived lung adenocarcinoma cell line growth inhibition [RAS]
Conditions: for IC50: curve of first compound; for viability, T/C: stronger effect = lower value
Summary of the method: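 Tumour cells grown as complex spheroids with HUVEC endothelial cells and mesenchymal stem cells, treated with RAS pathway inhibitor combinations. Each agent spans half-log steps from near clinical Cmax, or 10 microM where Cmax is unknown.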

[1] = second compound 0.00316 µM, first compound 0.0316 µM
[2] = second compound 0.00316 µM, first compound 0.1 µM
[3] = second compound 0.00316 µM, first compound 0.316 µM
[4] = second compound 0.00316 µM, first compound 1 µM
[5] = second compound 0.00316 µM, first compound 3.16 µM
[6] = second compound 0.00316 µM, first compound 10 µM
[7] = second compound 0.01 µM, first compound 0.0316 µM
[8] = second compound 0.01 µM, first compound 0.1 µM
[9] = second compound 0.01 µM, first compound 0.316 µM
[10] = second compound 0.01 µM, first compound 1 µM
[11] = second compound 0.01 µM, first compound 3.16 µM
[12] = second compound 0.01 µM, first compound 10 µM
[13] = second compound 0.0316 µM, first compound 0.0316 µM
[14] = second compound 0.0316 µM, first compound 0.1 µM
[15] = second compound 0.0316 µM, first compound 0.316 µM
[16] = second compound 0.0316 µM, first compound 1 µM
[17] = second compound 0.0316 µM, first compound 3.16 µM
[18] = second compound 0.0316 µM, first compound 10 µM
[19] = second compound 0.1 µM, first compound 0.0316 µM
[20] = second compound 0.1 µM, first compound 0.1 µM
[21] = second compound 0.1 µM, first compound 0.316 µM
[22] = second compound 0.1 µM, first compound 1 µM
[23] = second compound 0.1 µM, first compound 3.16 µM
[24] = second compound 0.1 µM, first compound 10 µM
[25] = second compound 0.316 µM, first compound 0.0316 µM
[26] = second compound 0.316 µM, first compound 0.1 µM
[27] = second compound 0.316 µM, first compound 0.316 µM
[28] = second compound 0.316 µM, first compound 1 µM
[29] = second compound 0.316 µM, first compound 3.16 µM
[30] = second compound 0.316 µM, first compound 10 µM
[31] = second compound 1 µM, first compound 0.0316 µM
[32] = second compound 1 µM, first compound 0.1 µM
[33] = second compound 1 µM, first compound 0.316 µM
[34] = second compound 1 µM, first compound 1 µM
[35] = second compound 1 µM, first compound 3.16 µM
[36] = second compound 1 µM, first compound 10 µM
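Note: spheroids exposed to compound for seven days before readout.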
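Throughout, for IC50: luminescence signal used as a proxy for viable cells.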

In the case of Cc1nc(N2CCC3(CC2)COC(C)C3N)c(CO)nc1Sc1ccnc(N)c1Cl (stereo unspecified) + C=CC(=O)N1CCN(c2nc(OCC3CCCN3C)nc3c(F)c(-c4nc(N)cc(C)c4C(F)(F)F)c(Cl)cc23)C(C)C1, the IC50 (second compound 0.00316 µM) is reported as < 31.6 nM, the IC50 (second compound 0.01 µM) is reported as < 31.6 nM and the IC50 (second compound 0.0316 µM) is reported as < 31.6 nM. The IC50 (second compound 0.1 µM) was < 31.6 nM, the IC50 (second compound 0.316 µM) was < 31.6 nM and the IC50 (second compound 1 µM) was < 31.6 nM. It also gave a viability, T/C [1] of 12.4%, a viability, T/C [2] of 7.94% and a viability, T/C [3] of 5.15%. It also gave a viability, T/C [4] of 4.23%, a viability, T/C [5] of 3.11% and a viability, T/C [6] of 3.36%. It also gave a viability, T/C [7] of 10.9%, a viability, T/C [8] of 6.73% and a viability, T/C [9] of 5.04%. For the same molecule, the viability, T/C [10] was 3.41%, the viability, T/C [11] was 3.13% and the viability, T/C [12] was 2.84%. The viability, T/C [13] was 9.73%, the viability, T/C [14] was 7.78% and the viability, T/C [15] was 4.91%. For the same molecule, the viability, T/C [16] was 3.38%, the viability, T/C [17] was 3.09% and the viability, T/C [18] was 2.69%. It also gave a viability, T/C [19] of 9.46%, a viability, T/C [20] of 8.29% and a viability, T/C [21] of 4.85%. For the same molecule, the viability, T/C [22] was 3.44%, the viability, T/C [23] was 3.22% and the viability, T/C [24] was 2.91%. For the same molecule, the viability, T/C [25] was 10.3%, the viability, T/C [26] was 7.09% and the viability, T/C [27] was 5.95%. It also gave a viability, T/C [28] of 4.14%, a viability, T/C [29] of 3.2% and a viability, T/C [30] of 3.39%. For the same molecule, the viability, T/C [31] was 9.98%, the viability, T/C [32] was 8.28% and the viability, T/C [33] was 6.91%. The viability, T/C [34] was 4.16%, the viability, T/C [35] was 3.7% and the viability, T/C [36] was 4.07%.

For NC1c2ccccc2OC12CCN(c1cnc3c(N4CCCc5ncccc54)n[nH]c3n1)CC2 (stereo unspecified) + C=CC(=O)N1CCN(c2nc(OCC3CCCN3C)nc3c(F)c(-c4nc(N)cc(C)c4C(F)(F)F)c(Cl)cc23)C(C)C1, the IC50 (second compound 0.00316 µM) was < 31.6 nM, the IC50 (second compound 0.01 µM) was < 31.6 nM and the IC50 (second compound 0.0316 µM) was < 31.6 nM. For the same molecule, the IC50 (second compound 0.1 µM) was < 31.6 nM, the IC50 (second compound 0.316 µM) was < 31.6 nM and the IC50 (second compound 1 µM) was < 31.6 nM. The viability, T/C [1] was 6.27%, the viability, T/C [2] was 4.36% and the viability, T/C [3] was 3.09%. For the same molecule, the viability, T/C [4] was 2.99%, the viability, T/C [5] was 2.79% and the viability, T/C [6] was 3.28%. The viability, T/C [7] was 5.37%, the viability, T/C [8] was 3.73% and the viability, T/C [9] was 2.99%. It also gave a viability, T/C [10] of 2.89%, a viability, T/C [11] of 2.44% and a viability, T/C [12] of 2.64%. The viability, T/C [13] was 4.86%, the viability, T/C [14] was 3.54% and the viability, T/C [15] was 3.04%. It also gave a viability, T/C [16] of 3.15%, a viability, T/C [17] of 2.61% and a viability, T/C [18] of 3.04%. For the same molecule, the viability, T/C [19] was 5.91%, the viability, T/C [20] was 4.17% and the viability, T/C [21] was 2.81%. The viability, T/C [22] was 2.78%, the viability, T/C [23] was 3% and the viability, T/C [24] was 2.64%. The viability, T/C [25] was 5.55%, the viability, T/C [26] was 3.15% and the viability, T/C [27] was 3.61%. The viability, T/C [28] was 3.03%, the viability, T/C [29] was 2.75% and the viability, T/C [30] was 2.78%. The viability, T/C [31] was 5.5%, the viability, T/C [32] was 4.65% and the viability, T/C [33] was 3.58%. It also gave a viability, T/C [34] of 3.3%, a viability, T/C [35] of 3.79% and a viability, T/C [36] of 3.5%.

Nc1ccn(C2OC(CO)C(O)C2(F)F)c(=O)n1 (stereo unspecified) + C=CC(=O)N1CCN(c2nc(OCC3CCCN3C)nc3c(F)c(-c4nc(N)cc(C)c4C(F)(F)F)c(Cl)cc23)C(C)C1 was tested, and the IC50 (second compound 0.00316 µM) was < 3.16 nM, the IC50 (second compound 0.01 µM) was < 3.16 nM and the IC50 (second compound 0.0316 µM) was < 3.16 nM. For the same molecule, the IC50 (second compound 0.1 µM) was < 3.16 nM, the IC50 (second compound 0.316 µM) was < 3.16 nM and the IC50 (second compound 1 µM) was < 3.16 nM. For the same molecule, the viability, T/C (second compound 0.00316 µM, first compound 0.00316 µM) was 18.4%, the viability, T/C (second compound 0.00316 µM, first compound 0.01 µM) was 16.4% and the viability, T/C [1] was 14.8%. It also gave a viability, T/C [2] of 16.6%, a viability, T/C [3] of 15.9% and a viability, T/C [4] of 15.8%. It also gave a viability, T/C (second compound 0.01 µM, first compound 0.00316 µM) of 16.5%, a viability, T/C (second compound 0.01 µM, first compound 0.01 µM) of 13.8% and a viability, T/C [7] of 13.9%. The viability, T/C [8] was 14.3%, the viability, T/C [9] was 14.3% and the viability, T/C [10] was 14.9%. For the same molecule, the viability, T/C (second compound 0.0316 µM, first compound 0.00316 µM) was 15%, the viability, T/C (second compound 0.0316 µM, first compound 0.01 µM) was 14.2% and the viability, T/C [13] was 12.5%. It also gave a viability, T/C [14] of 14.5%, a viability, T/C [15] of 15.3% and a viability, T/C [16] of 12.8%. It also gave a viability, T/C (second compound 0.1 µM, first compound 0.00316 µM) of 14.2%, a viability, T/C (second compound 0.1 µM, first compound 0.01 µM) of 13.2% and a viability, T/C [19] of 14.2%. The viability, T/C [20] was 11.5%, the viability, T/C [21] was 12.9% and the viability, T/C [22] was 14%. It also gave a viability, T/C (second compound 0.316 µM, first compound 0.00316 µM) of 13.4%, a viability, T/C (second compound 0.316 µM, first compound 0.01 µM) of 13.8% and a viability, T/C [25] of 11.6%. The viability, T/C [26] was 12.6%, the viability, T/C [27] was 14.7% and the viability, T/C [28] was 11.6%. The viability, T/C (second compound 1 µM, first compound 0.00316 µM) was 14.1%, the viability, T/C (second compound 1 µM, first compound 0.01 µM) was 16.4% and the viability, T/C [31] was 14.7%. It also gave a viability, T/C [32] of 13.7%, a viability, T/C [33] of 14.2% and a viability, T/C [34] of 14.3%.
